Tests used:
[1] = OLINDA dosimetry calculations for Mn-51 and daughter Cr-51; set-up: species or system human; settings: OLINDA input
Protocol: Due to the rapid blood clearance of Mn^2+, OLINDA (Organ Level INternal Dose Assessment) dosimetry calculations were performed assuming instant compartment localization with organ activity fractions equal to those measured by ex vivo biodistribution herein. Based on the previously measured lengthy organ residence times of Mn^2+, it was also assumed that the effective organ clearance half-life (Ter) was equal to the radioactive half-life of Mn-51 (t1/2: 45.6 min). It was also assumed that Mn-51 injections were 100% radionuclidically pure. In regards to the daughter isotope, Cr-51 (t1/2: 27.7 d), it was assumed that the activity remained in same organ compartments as the parent Mn-51 biodistribution without biological clearance. Standard radiation weighting factors were used (γ=1, β=1). Based on these assumptions, effective dose (ED) and effective dose equivalent (EDE) (units of mSv/MBq) were calculated for a standard adult male and female.

[2] = tested on: pancreatic uptake of ^52Mn^2+; test: One hour biodistribution of ^52Mn^2+ in anesthetized (1% isoflurane) or awake mice; assay type: in vivo; settings: 1% isoflurane vs awake, 1 h post injection, regardless of administration regime or glucose stimulation
Protocol: Previous reports have shown that most volatile anesthetics, including isoflurane, impair insulin secretion by inhibiting the deactivation of KATP channels. Plausibly, the observed decrease in pancreatic uptake of ^52Mn^2+ resulted from mice being anesthetized through the full extent of the studies during the dynamic PET scans. To investigate the impact of isoflurane anesthesia on pancreatic uptake, one hour post injection biodistribution experiments were performed under different administration conditions in either anesthetized (1% isoflurane) or awake mice.

[3] = ^52Mn^2+ PET and biodistribution in STZ type-1 diabetes model; assay type: in vivo, ICR mice; settings: ICR female mice, single STZ 180 mg/kg IP, four days after induction
Protocol: Type 1 diabetes was induced in female ICR mice via a single IP injection of 180 mg/kg streptozotocin (STZ; MP Biomedical, LLC, Santa Ana, Calif.), a toxin that selectively destroys pancreatic beta cell. The injectable STZ solution (12.5 mg/mL) was prepared freshly in phosphate buffered saline (PBS). The weight of each mouse was measured daily, and blood glucose levels were recorded every other day with a glucometer (TRUEresult, Trividia Health Inc., Fort Lauderdale, Fla.) using blood samples collected from the tail vein. Mice were considered diabetic after two consecutive blood glucose readings above 250 mg/dL and were used for PET imaging studies one week after the injection of STZ. To evaluate ^52Mn^2+ pancreatic uptake on diabetic mice, 0.74 MBq (20 μCi) of activity were administered IV and static PET images recorded one hour after administration of the tracer. Ex vivo biodistribution was carried out following PET acquisition.

[4] = tested on: ^52Mn^2+ pancreatic uptake; test: Pharmacological manipulation of ^52Mn^2+ pancreatic uptake in vivo (PET and biodistribution); set-up: species or system ICR mice
Protocol: To investigate the specificity of ^52Mn^2+ for beta cells, a series of studies were performed where ^52Mn^2+ uptake was manipulated through the pharmacologic stimulation or inhibition of the insulin secretory pathway. In these experiments, 0.74-1.85 MBq (20-50 μCi) of ^52Mn^2+ was administered IV into either female ICR or C57BL/6J mice and static PET scans were acquired at one hour post injection. During tracer administration, mice were awake. Mice were only anaesthetized by isoflurane (1%) immediately before PET imaging.
To corroborate the correlation between ^52Mn^2+ pancreatic uptake and the mechanism of insulin release in beta cells, the insulin secretory pathways were stimulated in vivo using glucose and glibendamide (Tocris Biosciences, Bristol, UK), which promotes insulin release in beta cells via blockade of ATP-sensitive potassium channel (KATP). Mice were injected intraperitoneally (IP) with 100 μL of glucose (1 g/kg) or glucose (1 g/kg)+glibenclamide (5 mg/kg) in PBS, 15 min before the IV injection of 0.74-1.85 MBq (20-50 μCi)^52Mn^2+. Static PET scans were acquired one hour after the injection of the radiotracer, after which ex vivo biodistribution was performed.
Whole-body PET scans were acquired at one hour post injection, after which ex vivo biodistribution was performed.

[5] = tested on: isolated ob/ob mouse islets; test: Uptake of ^52Mn^2+ in isolated islets under stimulatory or inhibitory conditions; assay type: cell-based; settings: 15 min incubation
Protocol: Mouse pancreatic islets were isolated by collagenase digestion. Briefly, mice were placed under shallow anesthesia and sacrificed via cervical dislocation. The mouse common bile duct was cannulized and 3-5 mL of an ice-cold solution containing type XI collagenase (0.5 mg/mL; Sigma Aldrich, St. Louis, Mo.) and bovine serum albumin (BSA; 0.2 mg/mL; Sigma Aldrich, St. Louis, Mo.) in Hank's balanced salt solution (HBSS; Invitrogen, Carlsbad, Calif.) was injected into the mouse pancreas. After inflation, the pancreas was removed, placed in a glass vial containing 5 mL of the collagenase solution, and incubated in a shaking water bath at 37° C. Samples were digested for approximately 30 min after which the digests were centrifuged at 50×g for 2 min and islet pellets were washed three times with 30 mL of an ice-cold BSA (0.2 mg/mL) in HBSS solution. The pellet was resuspended and islets handpicked into 35 mm petri dishes. Following isolation, islets were placed in RPMI1640 media supplemented with penicillin (100 U/mL; Invitrogen), streptomycin (100 μg/mL; Invitrogen), and FBS [10% (wt/vol); Sigma] and incubated overnight at 37° C. in a 5% CO2 atmosphere.
The uptake of ^52Mn^2+ by murine islets of Langerhans was determined under several stimulatory or inhibitory conditions. Batches of 50 islets were transferred into 0.45 μm filtered bottom 1 mL centrifuge vials (Thermo Fisher Scientific, Grand Island, N.Y.), 500 μL of Krebs-Ringer buffer (KRB: 118 mM NaCl, 5.4 mM KCl, 2.4 mM CaCl, 1.2 mM MgSO4, 1 mM […], 20 mM HEPES; pH 7.4) containing a low glucose concentration (1 mM D-glucose) were added and the islets incubated for 30 min at 37° C. After removing the supernatant following centrifugation at 50×g for 5 min, 250 μL of KRB containing glucose, diazoxide (50 μM; Tocris Biosciences, Bristol, UK), or tolbutamide (250 μM; Selleckchem, Houston, Tex.) were added, and the vials were spiked with 370 kBq (10 μCi) of ^52Mn^2+. After 15 min of incubation, the solutions were filtered and islets were washed three times with KRB. The ^52Mn^2+ radioactivity in the islet pellets were measured in an automated gamma counter (Perkin Elmer).

For `[51Cr]` [Cr-51], the “Number of disintigrations, Total Body” value ([1]; Total Body) was 7.20E+02 MBq-h/MBq, the “Number of disintigrations, Adrenals” value ([1]; source organ Adrenals) was 0.00E+00 MBq-h/MBq and the “Number of disintigrations, Brain” value ([1]; source organ Brain) was 3.93E+00 MBq-h/MBq. For the same molecule, the “Number of disintigrations, Breasts” value ([1]; source organ Breasts) was 0.00E+00 MBq-h/MBq, the “Number of disintigrations, Cortical Bone” value ([1]; source organ Cortical Bone) was 7.48E−01 MBq-h/MBq and the “Number of disintigrations, Gallbladder Contents” value ([1]; source organ Gallbladder Contents) was 0.00E+00 MBq-h/MBq. For the same molecule, the “Number of disintigrations, Heart Contents” value ([1]; source organ Heart Contents) was 0.00E+00 MBq-h/MBq, the “Number of disintigrations, Heart Wall” value ([1]; source organ Heart Wall) was 2.10E+01 MBq-h/MBq and the “Number of disintigrations, Kidneys” value ([1]; source organ Kidneys) was 6.12E+01 MBq-h/MBq. The “Number of disintigrations, LLI” value ([1]; source organ LLI) was 0.00E+00 MBq-h/MBq, the “Number of disintigrations, Liver” value ([1]; source organ Liver) was 5.58E+01 MBq-h/MBq and the “Number of disintigrations, Lungs” value ([1]; source organ Lungs) was 1.49E+01 MBq-h/MBq. The “Number of disintigrations, Muscle” value ([1]; source organ Muscle) was 1.93E+00 MBq-h/MBq, the “Number of disintigrations, Ovaries” value ([1]; source organ Ovaries) was 0.00E+00 MBq-h/MBq and the “Number of disintigrations, Pancreas” value ([1]; source organ Pancreas) was 3.64E+01 MBq-h/MBq. For the same molecule, the “Number of disintigrations, Red Marrow” value ([1]; source organ Red Marrow) was 0.00E+00 MBq-h/MBq, the “Number of disintigrations, Small Intestine” value ([1]; source organ Small Intestine) was 0.00E+00 MBq-h/MBq and the “Number of disintigrations, Spleen” value ([1]; source organ Spleen) was 8.12E+00 MBq-h/MBq. For the same molecule, the “Number of disintigrations, Stomach” value ([1]; source organ Stomach) was 1.23E+01 MBq-h/MBq, the “Number of disintigrations, Testes” value ([1]; source organ Testes) was 0.00E+00 MBq-h/MBq and the “Number of disintigrations, Thymus” value ([1]; source organ Thymus) was 0.00E+00 MBq-h/MBq. For the same molecule, the “Number of disintigrations, Thyroid” value ([1]; source organ Thyroid) was 0.00E+00 MBq-h/MBq, the “Number of disintigrations, Trabecular Bone” value ([1]; source organ Trabecular Bone) was 0.00E+00 MBq-h/MBq and the “Number of disintigrations, ULI” value ([1]; source organ ULI) was 5.70E+00 MBq-h/MBq. The “Number of disintigrations, Urinary Bladder Contents” value ([1]; source organ Urinary Bladder Contents) was 0.00E+00 MBq-h/MBq and the “Number of disintigrations, Uterus/Uterine Wall” value ([1]; source organ Uterus/Uterine Wall) was 0.00E+00 MBq-h/MBq.

With `FC(F)OC(Cl)C(F)(F)F` (centres unmarked) [Isoflurane] the “effect on accumulation of ^52Mn^2+ in the pancreas” value [2] was “significantly inhibited”.

In the case of `CN(N=O)C(=O)N[C@@H]1[C@@H](O)[C@H](O)[C@@H](CO)O[C@@H]1O` [STZ, reference compound], the “blood glucose after induction” value [3] is reported as > 250 mg/dL.

With `CC1=NS(=O)(=O)c2cc(Cl)ccc2N1` [diazoxide, 7-Chloro-3-methyl-4H-1,2,4-benzothiadiazine 1,1-dioxide] the “decline in ^52Mn^2+ pancreatic uptake vs control” value ([4]; 20 mg/kg IP 10-15 min before IV ^52Mn^2+ bolus, PET 1 h post injection) was 44%, the “pancreatic ^52Mn^2+ uptake after drug (PET quantification)” value ([4]; 20 mg/kg IP 10-15 min before IV ^52Mn^2+ bolus, PET 1 h post injection, control 5.13±0.36 SUV) was 2.85±0.92 SUV and the “effect on PET signal within the pancreas” value ([4]; 20 mg/kg IP before ^52Mn^2+ bolus) was “significant (P<0.0001) abrogation”. The “effect on glucose-stimulated ^52Mn^2+ uptake by islets” value ([5]; diazoxide 50 μM added to 10 mM glucose) was “blocked”.

With `COc1ccc(Cl)cc1C(=O)NCCc1ccc(S(=O)(=O)NC(=O)NC2CCCCC2)cc1` [glibenclamide] the “effect on pancreatic SUV values” ([4]; glibenclamide 5 mg/kg IP (with glucose 1 g/kg) 15 min before ^52Mn^2+, 1 h post injection) was “significant enhancement”.

With `OC[C@H]1OC(O)[C@H](O)[C@@H](O)[C@@H]1O` (some centres unmarked) [glucose] the “effect on ^52Mn^2+ uptake by islets” value ([5]; 10 mM glucose vs 1 mM glucose) was “significantly enhanced”.

For `CCCCNC(=O)NS(=O)(=O)c1ccc(C)cc1` [tolbutamide], the “effect on ^52Mn^2+ retention by islets” value ([5]; glucose and tolbutamide 250 μM) was “significantly higher”.

From US20180271470A1, “METHODS FOR QUANTIFYING PANCREATIC BETA CELL FUNCTION AND MASS PROPERTIES WITH RADIOMANGANESE POSITRON EMISSION TOMOGRAPHY” (Wisconsin Alumni Research Foundation, priority 2017, published 2018)
